Measured values published in patent US4568690A, “1-Methyl-5-p-methylbenzoylpyrrole-2-acetamidoacetanilides with antiinflammatory, analgesic, antipyretic and anti-platelet aggregant activity” (priority 1983, dated 1986).
Where two headings read alike, the source gives them in different places.

Assays:
[1] = system: carragenin-induced edema; assay: carragenin-induced edema test (antinflammatory activity); format: in vivo, rats
Protocol: (§1) Preparations of the compound were administered orally and/or parenterally in a suspension in 0.59% carboxymethylcellulose in pH neutral physiological saline.
This effect was evaluated with an experimental model reproducing actue inflammation in rats: the carragenin-induced edema test was used, according to the method of C. A. Winter (G. Pharmac. Exp. Ther., 141, 369 (1963)). Table III reports the compounds tested, their concentrations, administration routes and relative percent edema inhibition.

[2] = system: gastric mucosa; assay: gastric tolerance (ulcerogenic activity); conditions: orally, four consecutive days; for Incidence % / 10: groups of 10 animals; for Mean number severity: severity scale 0-5
Protocol: This was studied by testing ulcerogenic activity in male Wistar rats weighing an average of 180 g, using groups of 10 animals each. Three doses of each substance were used, and one group of animals was treated with vehicle only, in a volume of 10 ml/g body weight. Each dose was administered orally for four consecutive days, and the rats were killed on the fifth day and autopsied. The ulcerogenic effect was evaluated on the following scale:
(1) each hemorrhage point >1 mm was evaluated as 1 lesion
(2) the hemorrhage points <1 were counted as follows:
(b) from 1 to 19 2 lesions
(c) from 1 to 29 3 lesions
(2) gastric mucosa irritation
(3) hemorrhage points <1 mm
(4) hemorrhage points from 1 to 3 mm
(5) hemorrhage points >3 mm
This scale was used to calculate the following index of gastric damage: [formula]

[3] = system: platelet aggregation (ADP-induced); assay: in vitro anti-platelet aggregant activity (Born's method, ADP); format: cell-based, rat; conditions: Rattus norvegicus, Platelet, ADP 7.08 μmol/l, read-out: Inhibition % (platelet aggregation)
Protocol: This activity was studied in vitro following Born's method (G. W. R. Born, Nature, 194, 937 (1962)) and inducing platelet aggregation with ADP. […] For the aggregation test, 0.2 ml of platelet rich plasma was mixed with a NaCl solution (0.9%) to which the test substance was added up to a final volume of 0.6 ml. Incubation was fixed at 3 minutes at 27° C. After aggregation was induced with ADP, the course of the aggregation was monitored continuously with an Elvi 840 Aggregometer (Elvi Logos--Milan). The antiaggregant effects were determined by the difference in the light transmission of the sample with respect to that of the ADP control. The test compound was compared with aspirin, which has known antiplatelet aggregant activity (H. J. Weiss et al., J. Clin. Inv., 47, 2169 (1968); Platelet Aggregation and Drugs, edited by L. Caprino and E. C. Rossi, page 235, Academic Press (London), 1974).
Table VI reports the inhibition of platelet aggregation with various doses of the compounds tested at a constant ADP concentration.

[4] = system: hyperthermia induced by dry purified beer yeast; assay: antipyretic activity, beer yeast-induced hyperthermia; format: in vivo, Wistar strain male albino rats
Protocol: as §1
This effect was evaluated by inducing hyperthermia in Wistar strain male albino rats with an average weight of 250±10 g, injecting them intraperitoneally with a 10% suspension of dry purified beer yeast (Carlo Erba) in a volume of 10 ml/Kg of body weight, according to the method of S. Wong et al. (J. Pharmac. Exp. Ther., 185 (1), 127 (1973)).

[5] = system: p-phenylquinone-induced writhing; assay: p-phenylquinone-induced writhing test (analgesic activity); format: in vivo; conditions: an hour after administration
Protocol: as §1
The determination was made an hour after administration of the product. The inhibitory effect on abdominal contractions induced by phenyl-p-quinone was calculated as follows: [formula]
Table IV reports the doses, the administration routes and their effectiveness expressed as % protection.

[6] = in vivo; conditions: rat
[7] = in vivo; conditions: mouse
[8] = system: mouse; conditions: in vivo
[9] = system: healthy animals; conditions: background statement, prior ester; cited from earlier work
[10] = system: carragenin-induced edema; conditions: background statement, prior ester; cited from earlier work

Cc1ccc(C(=O)c2ccc(CC(=O)NCC(=O)Nc3cccc(Cl)c3)n2C)cc1 [Compound 1b] gave an Oedema inhibition % ([1]; i.p., 10 mg/kg, 3 h) of 30.1%, an Oedema inhibition % ([1]; i.p., 10 mg/kg, 6 h) of 29.0% and an Oedema inhibition % ([1]; i.p., 10 mg/kg, 24 h) of 0.0%. It also gave an Oedema inhibition % ([1]; i.p., 50 mg/kg, 3 h) of 49.2%, an Oedema inhibition % ([1]; i.p., 50 mg/kg, 6 h) of 43.5% and an Oedema inhibition % ([1]; i.p., 50 mg/kg, 24 h) of 2.3%. The Oedema inhibition % ([1]; i.p., 100 mg/kg, 3 h) was 65.4%, the Oedema inhibition % ([1]; i.p., 100 mg/kg, 6 h) was 62.0% and the Oedema inhibition % ([1]; i.p., 100 mg/kg, 24 h) was 16.4%. For the same compound, the Oedema inhibition % ([1]; os, 10 mg/kg, 3 h) was 29.8%, the Oedema inhibition % ([1]; os, 10 mg/kg, 6 h) was 22.3% and the Oedema inhibition % ([1]; os, 10 mg/kg, 24 h) was 0.0%. The Oedema inhibition % ([1]; os, 50 mg/kg, 3 h) was 47.3%, the Oedema inhibition % ([1]; os, 50 mg/kg, 6 h) was 44.1% and the Oedema inhibition % ([1]; os, 50 mg/kg, 24 h) was 0.0%. It also gave an Oedema inhibition % ([1]; os, 100 mg/kg, 3 h) of 61.9%, an Oedema inhibition % ([1]; os, 100 mg/kg, 6 h) of 59.8% and an Oedema inhibition % ([1]; os, 100 mg/kg, 24 h) of 15.3%. For the same compound, the Index gastric damage ([2]; 50 mg/kg) was 8, the “Index gastric damage, signed figure (untitled; difference from Carrier index 8)” value ([2]; 50 mg/kg) was “+0” and the Mean number lesions ([2]; 50 mg/kg) was 1. The “Incidence % / 10” value ([2]; 50 mg/kg) was 5 %/10, the Mean number severity ([2]; 50 mg/kg) was 2 and the Index gastric damage ([2]; 100 mg/kg) was 11. For the same compound, the “Index gastric damage, signed figure (untitled; difference from Carrier index 8)” value ([2]; 100 mg/kg) was “+3”, the Mean number lesions ([2]; 100 mg/kg) was 2 and the “Incidence % / 10” value ([2]; 100 mg/kg) was 7 %/10. For the same compound, the Mean number severity ([2]; 100 mg/kg) was 2, the Index gastric damage ([2]; 200 mg/kg) was 14 and the “Index gastric damage, signed figure (untitled; difference from Carrier index 8)” value ([2]; 200 mg/kg) was “+6”. For the same compound, the Mean number lesions ([2]; 200 mg/kg) was 3, the “Incidence % / 10” value ([2]; 200 mg/kg) was 8 %/10 and the Mean number severity ([2]; 200 mg/kg) was 3. The inhibition at 1 µg/mL ([3]; 1 γ/ml) was 25%, the inhibition at 5 µg/mL ([3]; 5 γ/ml) was 100% and the inhibition at 10 µg/mL ([3]; 10 γ/ml) was 100%. For the same compound, the Temperature decrease % ([4]; i.p., 50 mg/kg, 1 h) was 16.0%, the Temperature decrease % ([4]; i.p., 50 mg/kg, 2 h) was 19.3% and the Temperature decrease % ([4]; i.p., 50 mg/kg, 3 h) was 33.0%. For the same compound, the Temperature decrease % ([4]; i.p., 75 mg/kg, 1 h) was 26.0%, the Temperature decrease % ([4]; i.p., 75 mg/kg, 2 h) was 36.1% and the Temperature decrease % ([4]; i.p., 75 mg/kg, 3 h) was 40.0%. It also gave a Temperature decrease % ([4]; i.p., 100 mg/kg, 1 h) of 39.1%, a Temperature decrease % ([4]; i.p., 100 mg/kg, 2 h) of 40.0% and a Temperature decrease % ([4]; i.p., 100 mg/kg, 3 h) of 30.5%. For the same compound, the Temperature decrease % ([4]; os, 50 mg/kg, 1 h) was 19.0%, the Temperature decrease % ([4]; os, 50 mg/kg, 6 h) was 19.5% and the Temperature decrease % ([4]; os, 50 mg/kg, 24 h) was 29.8%. The Temperature decrease % ([4]; os, 75 mg/kg, 1 h) was 20.0%, the Temperature decrease % ([4]; os, 75 mg/kg, 6 h) was 30.0% and the Temperature decrease % ([4]; os, 75 mg/kg, 24 h) was 40.1%. The Temperature decrease % ([4]; os, 100 mg/kg, 1 h) was 30.0%, the Temperature decrease % ([4]; os, 100 mg/kg, 6 h) was 33.1% and the Temperature decrease % ([4]; os, 100 mg/kg, 24 h) was 31.2%. The Protection % ([5]; i.p., 5 mg/kg) was 18.7%, the Protection % ([5]; i.p., 10 mg/kg) was 42.3% and the Protection % ([5]; i.p., 20 mg/kg) was 69.5%. The Protection % ([5]; os, 5 mg/kg) was 16.1%, the Protection % ([5]; os, 10 mg/kg) was 36.2% and the Protection % ([5]; os, 20 mg/kg) was 69.1%. The LD50 ([6]; ip) was 1200 mg/kg, the LD50 ([6]; po) was greater than 1420 mg/kg and the LD50 ([7]; ip) was 1370 mg/kg. For the same compound, the LD50 ([7]; po) was greater than 1500 mg/kg.
In the case of COc1ccc(OC)c(NC(=O)CNC(=O)Cc2ccc(C(=O)c3ccc(C)cc3)n2C)c1 [Compound 1g], the “DL50 (LD50)” value ([8]; ip) is reported as 1200 mg/kg, the “DL50 (LD50)” value ([8]; po) is reported as 1470 mg/kg and the Oedema inhibition % ([1]; i.p., 10 mg/kg, 3 h) is reported as 35.6%. It also gave an Oedema inhibition % ([1]; i.p., 10 mg/kg, 6 h) of 37.0%, an Oedema inhibition % ([1]; i.p., 10 mg/kg, 24 h) of 0.0% and an Oedema inhibition % ([1]; i.p., 50 mg/kg, 3 h) of 50.1%. For the same compound, the Oedema inhibition % ([1]; i.p., 50 mg/kg, 6 h) was 50.0%, the Oedema inhibition % ([1]; i.p., 50 mg/kg, 24 h) was 6.1% and the Oedema inhibition % ([1]; i.p., 100 mg/kg, 3 h) was 71.0%. The Oedema inhibition % ([1]; i.p., 100 mg/kg, 6 h) was 71.5%, the Oedema inhibition % ([1]; i.p., 100 mg/kg, 24 h) was 22.9% and the Oedema inhibition % ([1]; os, 10 mg/kg, 3 h) was 30.4%. The Oedema inhibition % ([1]; os, 10 mg/kg, 6 h) was 37.9%, the Oedema inhibition % ([1]; os, 10 mg/kg, 24 h) was 1.2% and the Oedema inhibition % ([1]; os, 50 mg/kg, 3 h) was 51.4%. It also gave an Oedema inhibition % ([1]; os, 50 mg/kg, 6 h) of 49.0%, an Oedema inhibition % ([1]; os, 50 mg/kg, 24 h) of 7.9% and an Oedema inhibition % ([1]; os, 100 mg/kg, 3 h) of 72.3%. For the same compound, the Oedema inhibition % ([1]; os, 100 mg/kg, 6 h) was 70.0%, the Oedema inhibition % ([1]; os, 100 mg/kg, 24 h) was 25.1% and the Index gastric damage ([2]; 50 mg/kg) was 8. The “Index gastric damage, signed figure (untitled; difference from Carrier index 8)” value ([2]; 50 mg/kg) was “+0”, the Mean number lesions ([2]; 50 mg/kg) was 1 and the “Incidence % / 10” value ([2]; 50 mg/kg) was 6 %/10. The Mean number severity ([2]; 50 mg/kg) was 1, the Index gastric damage ([2]; 100 mg/kg) was 11 and the “Index gastric damage, signed figure (untitled; difference from Carrier index 8)” value ([2]; 100 mg/kg) was “+3”. For the same compound, the Mean number lesions ([2]; 100 mg/kg) was 2, the “Incidence % / 10” value ([2]; 100 mg/kg) was 7 %/10 and the Mean number severity ([2]; 100 mg/kg) was 2. The Index gastric damage ([2]; 200 mg/kg) was 14, the “Index gastric damage, signed figure (untitled; difference from Carrier index 8)” value ([2]; 200 mg/kg) was “+6” and the Mean number lesions ([2]; 200 mg/kg) was 3. The “Incidence % / 10” value ([2]; 200 mg/kg) was 9 %/10, the Mean number severity ([2]; 200 mg/kg) was 2 and the Temperature decrease % ([4]; i.p., 50 mg/kg, 1 h) was 26.0%. For the same compound, the Temperature decrease % ([4]; i.p., 50 mg/kg, 2 h) was 27.0%, the Temperature decrease % ([4]; i.p., 50 mg/kg, 3 h) was 26.0% and the Temperature decrease % ([4]; i.p., 75 mg/kg, 1 h) was 32.1%. It also gave a Temperature decrease % ([4]; i.p., 75 mg/kg, 2 h) of 34.5%, a Temperature decrease % ([4]; i.p., 75 mg/kg, 3 h) of 40.0% and a Temperature decrease % ([4]; i.p., 100 mg/kg, 1 h) of 39.1%. The Temperature decrease % ([4]; i.p., 100 mg/kg, 2 h) was 46.0%, the Temperature decrease % ([4]; i.p., 100 mg/kg, 3 h) was 41.0% and the Temperature decrease % ([4]; os, 50 mg/kg, 1 h) was 17.1%. It also gave a Temperature decrease % ([4]; os, 50 mg/kg, 6 h) of 27.1%, a Temperature decrease % ([4]; os, 50 mg/kg, 24 h) of 29.1% and a Temperature decrease % ([4]; os, 75 mg/kg, 1 h) of 19.6%. It also gave a Temperature decrease % ([4]; os, 75 mg/kg, 6 h) of 30.1%, a Temperature decrease % ([4]; os, 75 mg/kg, 24 h) of 43.1% and a Temperature decrease % ([4]; os, 100 mg/kg, 1 h) of 23.1%. For the same compound, the Temperature decrease % ([4]; os, 100 mg/kg, 6 h) was 33.0%, the Temperature decrease % ([4]; os, 100 mg/kg, 24 h) was 42.1% and the Protection % ([5]; i.p., 5 mg/kg) was 23.0%. It also gave a Protection % ([5]; i.p., 10 mg/kg) of 56.9%, a Protection % ([5]; i.p., 20 mg/kg) of 74.2% and a Protection % ([5]; os, 5 mg/kg) of 20.1%. For the same compound, the Protection % ([5]; os, 10 mg/kg) was 50.3%, the Protection % ([5]; os, 20 mg/kg) was 76.0% and the LD50 ([7]; ip) was 1430 mg/kg. For the same compound, the LD50 ([7]; po) was greater than 1500 mg/kg.
For COc1ccccc1OC(=O)CNC(=O)Cc1ccc(C(=O)c2ccc(C)cc2)n1C [Compound 4, 1-methyl-5-p-methylbenzoylpyrrole-2-acetamidoacetate of o-methoxyphenol], the “toxicity versus Tolmetin (in words)” value [9] is listed as “lower toxicity”, the “antinflammatory, analgesic, antipyretic, antisecretive and cough suppressing activity versus Tolmetin (in words)” value [10] is listed as “greater than that of Tolmetin” and the “duration of action versus Tolmetin (in words)” value [10] is listed as “longer lasting action”.
